Laboratory results reported in PubChem BioAssay (NCI).
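Growth conditions: 96-well plates. Treatment: test compound, 48 hours, 5 concentrations. Analysis: linear interpolation between bracketing concentrations; unreached endpoints set to highest concentration. GI50: concentration for 50% inhibition of growth. TGI is the concentration that stops growth completely.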

Tests used:
Assay in all cases: growth of human tumour cells (NCI), 48 h
[1] = system: SNB-75 CNS
[2] = system: SW-620 colon
[3] = system: A549 NSCLC
[4] = system: HL-60(TB) leukemia
[5] = system: T-47D breast
[6] = system: 786-0 renal
[7] = system: HCC-2998 colon
[8] = system: M14 melanoma
[9] = system: LOX IMVI melanoma
[10] = system: MDA-MB-435

SMILES	GI50 [1] [µM]	TGI [1] [µM]	GI50 [2] [µM]	TGI [2] [µM]	GI50 [3] [µM]	TGI [3] [µM]	GI50 [4] [µM]	TGI [4] [µM]	GI50 [5] [µM]	TGI [5] [µM]	GI50 [6] [µM]	TGI [6] [µM]	GI50 [7] [µM]	TGI [7] [µM]	GI50 [8] [µM]	TGI [8] [µM]	GI50 [9] [µM]	TGI [9] [µM]	GI50 [10] [µM]	TGI [10] [µM]
O=P(Oc1ccccc1)(Oc1ccccc1)C(O)c1ccccc1 (stereo not given)	34.4	> 100	> 100	> 100	> 100	> 100	60.7	> 100	25.2	> 100	> 100	> 100	> 100	> 100	> 100	> 100	> 100	> 100	74	> 100
COc1ccc(C(=O)c2cc(OC)c(OC)c(OC)c2)cc1/C=C/C(=O)c1ccc(O)cc1	1.62	4.77	2.51	10.2	18.7	> 100	0.693	> 100	19	> 100	1.66	3.74	1.66	3.16	1.98	5.86	1.75	3.9	1.18	11.3
COC(=O)/C=C1\SC(=Nc2ccc(C(F)(F)F)cc2)N(CCc2c[nH]c3ccccc23)C1=O	1.21	2.48	1.57	3.29	2.01	4.8	1.23	3.98	1.19	3.17	1.56	2.95	1.86	3.43	1.46	2.9	1.49	2.81	1.56	3.03
O=C(CSc1nc2ccc([N+](=O)[O-])cc2[nH]1)Nc1cccc(C(F)(F)F)c1	1.61	7.81	3.13	14.6	2.3	12.7	2.57	8.33	1.14	11.8	2.98	13.1	2.8	12.2	3.17	14.9	2.95	13	2.5	12.8
O=C(Oc1cccc(Nc2ncnc3ccccc23)c1)c1ccccc1Cl			21.8	49.2	25.9	> 100	79.4	> 100	29.2	> 100	20.8	71.9	20.4	39.3	39.7	> 100	15.8	36.2	41.6	> 100
Cc1cc(S(=O)(=O)Nc2nnc(-c3ccco3)c(-c3ccco3)n2)c(SCc2ccccc2)cc1Cl	32.1	56.2	23	47.2	34.7	> 100	24.8	83.1	25.2	48.6	38.8	> 100	20.4	36.8	25.8	55.5	24.7	45.4	25.4	49.6
O=C1c2cccnc2-c2nc(-c3ccccn3)cc3c2c1nc1ccccc13	1.69	3.81			1.38	3.39	0.066		0.601	11.9	0.0825	0.26	0.412	1.48	0.228	1.36	0.287	1.52	0.728	2.09
COc1cccc2c(Nc3ccc(C(=O)NCCNCCO)cc3)cc(-c3ccccc3)nc12		34.9	37.7	> 100	> 100	> 100	26.6	99.2	23	62	33.5	> 100	49.6	> 100	26.9	74.7	3.17	23.2	27.8	75.5
Cn1cc(-c2nc(-c3c[nH]c4ncccc34)cs2)c2cc(Cl)ccc21	3.52	> 100	5.3	> 100	3.94	> 100	5.93	> 100	0.0913	23.6	4.62	> 100	3.47	28.3	4.85	40.7	3.61	> 100	3.47	> 100
O=C(Nc1ncc([N+](=O)[O-])s1)c1cccc([N+](=O)[O-])c1	10.7	88	6.04	> 100	4.24	42.5	2.35	8.27	2.02	12.9	2.57	> 92	3.2	> 100	3.85	24.1	3.66	> 100	3.16	20.9
COC(=O)c1ccc(-c2nc3cc(F)c(F)cc3nc2C#N)cc1			4.66	16.8	10.8	25.6	3.23	9.51	12.8	32	26.4	50	8.41	16.1	8.28	18.9	0.948	1.79	8.21	16.4
C[C@@H](Oc1cc(-c2cnn(C3CCNCC3)c2)cnc1N)c1c(Cl)ccc(F)c1Cl			0.435	> 10	0.947	> 10	0.398	1.9	1.71	7.9	2.72	8.94	2.28	> 10	1.08	2.65	1.17	2.64	0.715	> 10
